Reference: PubChem BioAssay (NCI)
Values joined by “and” are separate entries in the source; they are usually repeats but may differ in a detail not shown here. Identical values can stand only once.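 Following 48 hours of exposure in 96-well plates, responses at five concentrations were used to interpolate endpoints linearly. The concentration for 50% growth inhibition is given as GI50. TGI denotes the concentration required for complete inhibition of growth.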

What was measured:
Assay in all cases: NCI anticancer screen, dose series, 48 h
M14 melanoma = tested on: M14 melanoma
MCF7 breast = tested on: MCF7 breast
NCI-H23 lung = tested on: NCI-H23 lung
NCI/ADR-RES ovarian = tested on: NCI/ADR-RES ovarian
OVCAR-4 ovarian = tested on: OVCAR-4 ovarian
PC-3 prostate = tested on: PC-3 prostate
RPMI-8226 leukemia = tested on: RPMI-8226 leukemia
RXF 393 renal = tested on: RXF 393 renal
SNB-75 CNS = tested on: SNB-75 CNS
U251 CNS = tested on: U251 CNS

Compound | TGI (M14 melanoma) | TGI (MCF7 breast) | TGI (NCI-H23 lung) | TGI (NCI/ADR-RES ovarian) | TGI (OVCAR-4 ovarian) | TGI (PC-3 prostate) | TGI (RPMI-8226 leukemia) | TGI (RXF 393 renal) | TGI (SNB-75 CNS) | TGI (U251 CNS) | GI50 (M14 melanoma) | GI50 (MCF7 breast) | GI50 (NCI-H23 lung) | GI50 (OVCAR-4 ovarian) | GI50 (PC-3 prostate) | GI50 (RPMI-8226 leukemia) [µM] | GI50 (RXF 393 renal)
O=S(=O)(O)c1cc(O)c2c(O)c(N=Nc3cccc4ccccc34)c(S(=O)(=O)O)cc2c1 | > 100 µM | > 100 µM | > 100 µM | > 100 µM | > 100 µM | > 100 µM | > 100 µM | > 100 µM | > 100 µM | > 100 µM |  |  |  |  |  |  | 
Cc1ccc(OCC2OC(n3cnc4c(Cl)ncnc43)CC2Oc2ccc(C)cc2)cc1 (centres undefined) | 6.61 µM and 22.6 µM | 12.6 µM and > 58.8 µM | 7.99 µM and 27.8 µM | 36.5 µM and 40.8 µM | 13.1 µM and > 56.6 µM | 9.35 µM and 34.3 µM | > 25 µM and 22.5 µM | 10.6 µM and 37.2 µM | 34.3 µM and > 68.7 µM | 11 µM and > 50.4 µM | 2.75 µM and 7.3 µM | 4.44 µM and 21 µM | 3.03 µM and 11.9 µM | 2.57 µM and 10.6 µM | 3.53 µM and 17.6 µM | 3.03 | 2.85 µM and 10.9 µM
O=C(O)c1cc(Cl)cc2c1NC1(N2)C(=O)Nc2ccccc21 (centres undefined) | > 100 µM | > 100 µM | > 100 µM | > 100 µM | > 100 µM | > 100 µM | > 100 µM | > 100 µM | > 100 µM | > 100 µM |  |  |  |  |  |  | 
CN(C)C(=O)C(F)(F)C(c1ccc(Br)cc1)C1C(=O)N(C)C(=O)N(C)C1=O (centres undefined) | > 100 µM | > 100 µM | > 100 µM | > 100 µM | > 100 µM | > 100 µM | > 100 µM | > 100 µM | > 100 µM | > 100 µM |  |  |  |  |  |  | 
CN(C)Cc1cc(C(=O)/C=C/c2cccc(Cl)c2)cc(CN(C)C)c1O | 15.5 µM | 23.3 µM | 37.9 µM | > 100 µM |  | 22.8 µM | 7.73 µM | 23.6 µM | 6.43 µM | 12.3 µM |  |  |  |  |  |  | 
COP(=O)(OC)C(NC=O)P(=O)(OC)OC | > 100 µM | > 100 µM | > 100 µM | > 100 µM | > 100 µM | > 100 µM | > 100 µM | > 100 µM |  | > 100 µM |  |  |  |  |  |  | 
CNC(=S)N/N=C(\C)c1nc2ncccc2[nH]1 | > 100 µM | > 100 µM |  | 29.7 µM | > 100 µM | > 100 µM | > 100 µM | > 100 µM | > 100 µM | > 100 µM |  |  |  |  |  |  | 
